# According to patent US11155576B2, “Synthetic peptides, enzymatic formation of pericellular hydrogels/nanofibrils, and methods of use” (BRANDEIS UNIVERSITY, priority 2014, dated 2021):
# Legend:
# [1] = system: HeLa cells; assay: Confocal microscopy, Congo red/DAPI staining, HeLa; format: cell-based, human; details: 280 μM, 12 hours
# Protocol: Cells in exponential growth phase were seeded in a glass bottomed culture chamber at 2×10^4 cells/well. Cells were allowed to attach for 24 hours at 37° C., 5% CO2. The culture medium was removed, and replaced with culture medium containing D-2a at 280 μM. Following 12 hours of incubation, cells were washed 3 times with PBS prior to being stained with 0.1 mg/mL Congo red and 0.6 μM DAPI in PBS buffer (30 minutes at 37° C. in the dark). Next, cells were rinsed three times with PBS, and then kept in PBS for imaging.
# Pericellular nanofibrils and cellular nuclei can be visualized using Congo red and DAPI, respectively (Kapuscinski, Biotech. Histochem. 70:220-233 (1995); Binder et al., Angew. Chem. Int. Ed. 45:7324-7328 (2006), each of which is hereby incorporated by reference in its entirety).
# [2] = system: HeLa cells; assay: LC-MS composition of pericellular hydrogel/nanofibrils and suspension medium of HeLa cells; format: in vitro ADME, human
# [3] = system: MES-SA/dx5 cells; assay: Cell viability assay (MTT), MES-SA/dx5; format: cell-based, human; details: 280 μM; multi-drug resistant cells
# Protocol: (§1) Cells in exponential growth phase were seeded in a 96 well plate at a concentration of 2×10^4 cells/well. The cells were allowed to attach to the wells for 24 hours at 37° C., 5% CO2. The culture medium was removed and 100 μL culture medium containing compounds (immediately diluted from fresh prepared stock solution of 10 mM) at gradient concentrations (0 μM as the control) was placed into each well. After culturing at 37° C., 5% CO2 for 48 hours, each well was added by 10 μL of 5 mg/mL MTT (3-(4,5-dimethylthiazoL-2-yl)-2,5-diphenyltetrazolium bromide), and the plated cells were incubated in the dark for 4 hours. 100 μL 10% SDS with 0.01M HCl was added to each well to stop the reduction reaction and to dissolve the purple. After overnight incubation of the cells at 37° C., the OD at 595 nm of the solution was measured in a microplate reader. Data represent the mean±standard deviation of three independent experiments.
# [4] = system: secretory phosphatases present in HeLa cell conditioned medium; assay: Hydrogelation in HeLa cell conditioned medium; format: biochemical, human; details: 48 hours
# Protocol: 2×10^5 of cells in exponential growth phase were seeded in a 35 mm Petri dish with 1 mL complete culture medium. Following overnight incubation, 1 mL of new medium was replaced and incubated for 24 h at 5% CO2, 37° C. The medium was next removed and centrifuged at 10,000 rpm for 5 minutes. The suspension was placed into a 1.5 mL Eppendorf® tube and stored at −20° C. Stored conditioned medium was thawed and warmed to 37° C. in water bath immediately before use.
# HeLa cell conditioned medium (“CM”) dephosphorylates D-2a to form D-2b nanofibrils.
# [5] = system: HeLa cells; assay: Western blot of tubulin in pericellular nanonets versus CM; format: cell-based, human; details: nanonets after 3 or 6 hours of incubation versus CM collected at 24 hours
# Protocol: To select the optimal incubation time for the collection of nanonets/hydrogel, HeLa cells were incubated with D-2a (for 3, 6, or 9 hours, respectively) to allow nanonet formation. The amount of tubulin (an indicator of autolysis) present in the nanonets/hydrogels at various time points was evaluated by Western blot and compared to the amount of tubulin present in conditioned media (“CM”) collected following 24 hours of incubation (FIG. 33A). […] The results also indicate the cell compatibility of the incubation and collection process for nanonets/hydrogel.
# [6] = system: HeLa cells; assay: Viability of cells after cold shock and nanonet collection; format: cell-based, human; details: 4 hour incubation with D-2a in FBS-free MEM, cold shock and medium removal
# Protocol: FIGS. 33A-33B show the cell compatibility of the use of nanonets/hydrogel for collecting cancer secretome. FIG. 33A is a Western blot showing the amount of tubulins in CM collected after 24 hours of incubation or pericellular nanonets collected after 3 to 9 hours of incubation. […] Both CM and nanonets were collected in FBS-free MEM. […] Two trials, each has three repeats.
# In another experiment the viability of cells following nanonet collection was evaluated following 4 hour incubation with D-2a and cold shock.
# [7] = system: MES-SA cells; assay: Cell viability assay (MTT), MES-SA; format: cell-based; details: 280 μM
# Protocol: as §1
# [8] = system: HeLa cells; assay: Negative stained TEM of pericellular hydrogel on HeLa cells; format: physicochemical, human; details: HeLa cells treated with 280 μM D-2a
# Protocol: Carbon coated copper grids were glow-discharged to increase their hydrophilicity prior to use. Pericellular hydrogel/nanofibrils were obtained by incubating D-2a at 280 μM with HeLa cells for 2 hours. Cell culture medium was removed in order to expose the pericellular hydrogel. The carbon coated side of the grid was gently pressed onto the pericellular hydrogel for 1 second. Next, the sample-loaded surface was washed using a drop of ddH2O. To remove excess water from the grid, the edge of the grid was immediately tilted and blotted three times against a filter paper. The grid was stained by letting the grid touch a drop of 2.0% (w/v) uranyl acetate with the sample-loaded surface. Excessive stain solution was removed by gently touching the grid with a drop of ddH2O. The grid was then dried by touching the edge of the grid with a filter paper for 3 times. The grid was air dried for a few minutes and examined immediately.
# That is, the nanofibrils form nanonets. Similar to the nanofibrils of D-2b formed by the addition of ALP into the solution of D-2a in PBS buffer (FIG. 7), these cell-surface nanofibrils entangle with each other to form the matrices of the hydrogel.
# [9] = system: HeLa cells; assay: Pericellular hydrogelation on HeLa cells (optical images); format: cell-based, human
# Protocol: An 11.2 mM (8.09 mg/mL) stock solution of D-2a was prepared in ddH2O. The pH was adjusted to 7.4 using 1N NaOH. 2×10^5 cells in exponential growth phase were seeded in 35 mm Petri dish with 1 mL complete culture medium. Following overnight incubation, the medium was replaced with 1 mL of medium containing D-2a (diluted from the stock solution immediately prior to use). Petri dishes were incubated at 37° C. for two hours. Next, dishes were removed from the incubator and titled on a bench to visualize the pericellular hydrogel. Prior to co-incubation with phosphatase inhibitors, cells were washed three times with medium containing Pierce phosphatase inhibitor cocktail (Thermo) (contains sodium floride, sodium orthovanadate, sodium pyrophosphate, and beta-glycerophosphate). Next, 1 mL of medium containing both the inhibitor cocktail and D-2a was applied to the cells.
# [10] = HeLa cells incubated with precursor at 560 μM at 37° C. for 12 hours
smiles,measurement,setting,value
"O=C(Cc1ccc2ccccc2c1)N[C@H](Cc1ccccc1)C(=O)N[C@H](Cc1ccccc1)C(=O)N[C@H](Cc1ccc(OP(=O)(O)O)cc1)C(=O)O [D-2a, Nap-D-Phe-D-Phe-D-Tyr(PO3H2)]",Congo red fluorescence on cells,[1],fluorescence (red) that outlines the cell shape
same,DAPI entry into cells,[1],DAPI is unable to enter
same,D-2b in pericellular hydrogel,[2]; [10],2053.9 µM
same,D-2b in suspension medium,[2]; [10],502.5 µM
same,Concentration of D-2b in the hydrogel (LC-MS),"[2]; hydrogel of FIG. 2A, HeLa monolayers treated with 500 μM D-2a as printed",approximately 2.05 mM
same,Growth inhibition,[3],inhibits the growth
same,Hydrogel formation in HeLa cell conditioned medium,[4]; 140 μM,fails to form a hydrogel
same,Hydrogel formation in HeLa cell conditioned medium,[4]; 280 μM,completely transforms from a solution to a hydrogel
same,Hydrogel formation in HeLa cell conditioned medium,[4]; 560 μM,completely transforms from a solution to a hydrogel
same,Amount of tubulin (indicator of autolysis) in nanonets,[5],contain less tubulin than CM
same,Cell viability after nanonet collection,[6],hardly affected cell viability
same,Growth inhibition,[7],inhibits the growth
same,Diameter of nanofibrils of the pericellular hydrogel,[8],about 20 nm
same,Pericellular hydrogel formation on HeLa cells,"[9]; 140 μM, 2 hours at 37° C.",Little hydrogelation
same,Pericellular hydrogel formation on HeLa cells,"[9]; 280 μM, 2 hours at 37° C.",formation of a hydrogel-like soft material (hydrogel) on the cell surface
same,Pericellular hydrogel formation on HeLa cells,"[9]; 560 μM D-2a in the presence of ALP (0.1 U/mL), 2 hours",hardly any pericellular hydrogelation
same,Pericellular hydrogel formation on HeLa cells,"[9]; 560 μM D-2a with phosphatase inhibitors (Pierce), 2 hours",prevent formation of the pericellular hydrogel
same,Pericellular hydrogel formation on HeLa cells,"[9]; 560 μM, 2 hours at 37° C.",formation of a hydrogel-like soft material (hydrogel) on the cell surface
